# In paper doi:10.1101/2021.04.08.439011v1 (biorxiv, 2021):
# Like-named read-outs stand apart in the source and are kept apart here.
# Assays:
# [1] = molecular target: ERBB4 (Homo sapiens, UniProt Q15303); settings: 0.1 µM; binder
# [2] = molecular target: NEK11 (Homo sapiens, UniProt Q8NG66); settings: 0.1 µM; binder
# [3] = molecular target: PIK3CA(E545K) (Homo sapiens, UniProt P42336, E545K); settings: 0.1 µM; binder
# [4] = molecular target: CDK9 (Homo sapiens, UniProt P50750); settings: 0.1 µM; binder
# [5] = molecular target: EPHB4 (Homo sapiens, UniProt P54760); settings: 0.1 µM; binder
# [6] = molecular target: PIP4K2B (Homo sapiens, UniProt P78356); settings: 0.1 µM; binder
# Sequence of PIP4K2B (P78356 whole entry): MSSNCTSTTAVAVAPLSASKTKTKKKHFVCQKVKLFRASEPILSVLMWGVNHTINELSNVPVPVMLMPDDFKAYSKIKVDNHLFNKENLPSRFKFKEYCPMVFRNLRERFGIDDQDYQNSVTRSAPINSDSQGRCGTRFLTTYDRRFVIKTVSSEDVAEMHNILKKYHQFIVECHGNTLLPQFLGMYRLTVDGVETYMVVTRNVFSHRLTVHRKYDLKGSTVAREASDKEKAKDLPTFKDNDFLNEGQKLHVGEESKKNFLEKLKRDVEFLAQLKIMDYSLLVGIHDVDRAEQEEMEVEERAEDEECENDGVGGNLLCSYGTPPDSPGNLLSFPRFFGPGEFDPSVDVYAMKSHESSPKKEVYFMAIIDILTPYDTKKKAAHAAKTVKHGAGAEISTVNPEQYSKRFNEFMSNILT
# [7] = molecular target: ULK3 (Homo sapiens, UniProt Q6PHR2); settings: 0.1 µM; binder
# [8] = molecular target: PRKX (Homo sapiens, UniProt P51817); settings: 0.1 µM; binder
# Sequence of PRKX (P51817 whole entry): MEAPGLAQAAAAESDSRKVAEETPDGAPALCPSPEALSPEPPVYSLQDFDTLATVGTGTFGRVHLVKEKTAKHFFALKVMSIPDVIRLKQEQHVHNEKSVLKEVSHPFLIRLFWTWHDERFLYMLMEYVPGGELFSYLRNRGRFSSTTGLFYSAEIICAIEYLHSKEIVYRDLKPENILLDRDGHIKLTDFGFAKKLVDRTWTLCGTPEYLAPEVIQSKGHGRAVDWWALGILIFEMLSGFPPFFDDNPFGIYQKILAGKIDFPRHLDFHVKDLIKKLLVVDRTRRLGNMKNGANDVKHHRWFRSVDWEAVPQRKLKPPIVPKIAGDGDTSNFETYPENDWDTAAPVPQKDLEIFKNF
# [9] = molecular target: IRAK4 (Homo sapiens, UniProt Q9NWZ3); settings: 0.1 µM; binder
# Sequence of IRAK4 (Q9NWZ3 whole entry): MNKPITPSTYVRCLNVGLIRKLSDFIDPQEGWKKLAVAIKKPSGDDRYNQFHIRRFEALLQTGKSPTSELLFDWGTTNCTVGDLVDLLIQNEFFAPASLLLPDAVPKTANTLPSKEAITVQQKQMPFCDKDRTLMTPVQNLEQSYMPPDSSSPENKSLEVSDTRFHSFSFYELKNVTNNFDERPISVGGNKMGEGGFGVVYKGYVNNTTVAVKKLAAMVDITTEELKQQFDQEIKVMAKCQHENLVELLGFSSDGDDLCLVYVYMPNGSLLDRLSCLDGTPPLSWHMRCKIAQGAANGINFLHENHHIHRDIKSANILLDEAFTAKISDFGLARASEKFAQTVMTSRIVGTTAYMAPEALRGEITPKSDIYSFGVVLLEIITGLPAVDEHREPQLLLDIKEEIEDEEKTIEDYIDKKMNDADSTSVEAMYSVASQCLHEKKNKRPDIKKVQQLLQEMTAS
# [10] = molecular target: ERBB3 (Homo sapiens, UniProt P21860); settings: 0.1 µM; binder
# [11] = molecular target: AKT1 (Homo sapiens, UniProt P31749); settings: 0.1 µM; binder
# [12] = molecular target: MATK (Homo sapiens, UniProt P42679); settings: 0.1 µM; binder
# Sequence of MATK (P42679 whole entry): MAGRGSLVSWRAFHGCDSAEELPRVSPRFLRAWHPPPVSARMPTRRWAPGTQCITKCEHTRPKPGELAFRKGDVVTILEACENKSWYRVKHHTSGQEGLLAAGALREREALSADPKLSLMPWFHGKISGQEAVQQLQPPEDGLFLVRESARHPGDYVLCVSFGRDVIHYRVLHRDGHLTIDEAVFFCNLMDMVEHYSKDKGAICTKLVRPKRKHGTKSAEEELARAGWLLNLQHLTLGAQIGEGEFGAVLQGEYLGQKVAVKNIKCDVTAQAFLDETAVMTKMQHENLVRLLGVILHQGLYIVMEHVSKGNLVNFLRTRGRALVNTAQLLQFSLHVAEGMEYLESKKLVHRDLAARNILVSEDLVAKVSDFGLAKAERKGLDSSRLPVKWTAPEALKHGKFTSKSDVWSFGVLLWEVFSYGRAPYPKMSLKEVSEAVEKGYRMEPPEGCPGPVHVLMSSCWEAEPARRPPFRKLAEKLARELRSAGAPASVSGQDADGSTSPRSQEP
# [13] = molecular target: ABL1(H396P) (Homo sapiens, UniProt P00519, H396P); settings: 0.1 µM, binder
# [14] = molecular target: ERK8 (Homo sapiens, UniProt Q8TD08); settings: 0.1 µM; binder
# [15] = molecular target: SYK (Homo sapiens, UniProt P43405); settings: 0.1 µM; binder
# [16] = molecular target: DDR2 (Homo sapiens, UniProt Q16832); settings: 0.1 µM; binder
# [17] = molecular target: ERK4 (Homo sapiens, UniProt P31152); settings: 0.1 µM; binder
# [18] = molecular target: TGFBR1 (Homo sapiens, UniProt P36897); settings: 0.1 µM; binder
# [19] = molecular target: BUB1 (Homo sapiens, UniProt O43683); settings: 0.1 µM; binder
# Sequence of BUB1 (O43683 whole entry): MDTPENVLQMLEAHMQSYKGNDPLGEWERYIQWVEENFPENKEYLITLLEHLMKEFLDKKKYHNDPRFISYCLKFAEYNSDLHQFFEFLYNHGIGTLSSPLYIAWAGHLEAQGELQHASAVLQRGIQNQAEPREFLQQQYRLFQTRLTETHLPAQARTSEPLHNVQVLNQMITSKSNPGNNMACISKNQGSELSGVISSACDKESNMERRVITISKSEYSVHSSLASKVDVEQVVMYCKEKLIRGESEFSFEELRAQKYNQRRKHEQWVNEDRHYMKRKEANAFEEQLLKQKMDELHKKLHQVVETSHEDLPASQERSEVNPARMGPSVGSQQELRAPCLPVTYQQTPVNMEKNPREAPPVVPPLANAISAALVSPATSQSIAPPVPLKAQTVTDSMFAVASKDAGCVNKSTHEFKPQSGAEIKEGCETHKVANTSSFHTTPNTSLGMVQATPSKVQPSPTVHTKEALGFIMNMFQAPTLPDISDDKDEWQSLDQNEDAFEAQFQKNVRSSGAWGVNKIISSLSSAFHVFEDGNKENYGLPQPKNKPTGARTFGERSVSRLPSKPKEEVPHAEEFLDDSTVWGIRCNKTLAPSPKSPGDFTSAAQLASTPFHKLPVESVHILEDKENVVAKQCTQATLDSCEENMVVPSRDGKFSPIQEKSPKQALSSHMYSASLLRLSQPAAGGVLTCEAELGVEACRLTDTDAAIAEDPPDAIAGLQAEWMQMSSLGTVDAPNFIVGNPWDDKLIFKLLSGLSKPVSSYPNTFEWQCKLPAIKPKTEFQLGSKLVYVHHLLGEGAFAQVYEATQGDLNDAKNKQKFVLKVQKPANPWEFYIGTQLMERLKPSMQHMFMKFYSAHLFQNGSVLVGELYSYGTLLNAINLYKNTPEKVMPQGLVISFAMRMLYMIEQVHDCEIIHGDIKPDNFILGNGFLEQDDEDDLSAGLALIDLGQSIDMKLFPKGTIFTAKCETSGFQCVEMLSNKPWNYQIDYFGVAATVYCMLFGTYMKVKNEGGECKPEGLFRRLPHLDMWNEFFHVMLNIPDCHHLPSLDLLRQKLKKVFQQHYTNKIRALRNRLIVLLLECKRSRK
# [20] = molecular target: MLK1 (Homo sapiens, UniProt P80192); settings: 0.1 µM; binder
# [21] = molecular target: KIT (Homo sapiens, UniProt P10721); settings: 0.1 µM, binder
# Sequence of KIT (P10721 whole entry): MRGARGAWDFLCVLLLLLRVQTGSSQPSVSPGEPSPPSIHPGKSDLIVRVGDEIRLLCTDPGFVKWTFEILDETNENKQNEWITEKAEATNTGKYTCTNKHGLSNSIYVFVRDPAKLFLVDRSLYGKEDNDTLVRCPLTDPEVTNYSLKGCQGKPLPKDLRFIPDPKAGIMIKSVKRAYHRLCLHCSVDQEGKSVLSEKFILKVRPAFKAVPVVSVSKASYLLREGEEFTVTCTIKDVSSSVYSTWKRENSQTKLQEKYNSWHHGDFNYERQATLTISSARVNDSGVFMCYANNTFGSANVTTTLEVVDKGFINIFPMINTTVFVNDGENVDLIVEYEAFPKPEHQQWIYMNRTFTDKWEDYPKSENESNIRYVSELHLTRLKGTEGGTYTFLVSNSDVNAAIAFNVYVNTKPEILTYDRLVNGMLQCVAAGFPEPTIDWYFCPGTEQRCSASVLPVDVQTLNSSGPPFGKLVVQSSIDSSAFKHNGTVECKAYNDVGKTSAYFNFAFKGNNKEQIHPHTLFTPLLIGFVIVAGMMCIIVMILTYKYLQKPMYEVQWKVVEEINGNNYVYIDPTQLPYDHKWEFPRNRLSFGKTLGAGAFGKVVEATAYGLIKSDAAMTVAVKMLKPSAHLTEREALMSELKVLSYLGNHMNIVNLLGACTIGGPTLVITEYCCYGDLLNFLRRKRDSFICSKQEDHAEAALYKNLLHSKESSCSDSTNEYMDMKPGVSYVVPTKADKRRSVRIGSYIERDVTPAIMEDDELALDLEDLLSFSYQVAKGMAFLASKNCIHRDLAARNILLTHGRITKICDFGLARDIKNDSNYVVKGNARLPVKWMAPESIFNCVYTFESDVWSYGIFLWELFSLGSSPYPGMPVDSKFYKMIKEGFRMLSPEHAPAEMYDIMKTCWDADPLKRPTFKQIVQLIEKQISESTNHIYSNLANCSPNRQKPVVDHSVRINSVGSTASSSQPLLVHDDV
# [22] = molecular target: PRKCH (Homo sapiens, UniProt P24723); settings: 0.1 µM; binder
# [23] = molecular target: MLK3 (Homo sapiens, UniProt Q16584); settings: 0.1 µM; binder
# [24] = molecular target: KIT(V559D,V654A) (Homo sapiens, UniProt P10721, V559D/V654A); settings: 0.1 µM; binder
# Sequence of KIT(V559D,V654A) (P10721 whole entry V559D/V654A): as the sequence (P10721 whole entry) above, with V559D, V654A counted along it
# [25] = molecular target: MLK2 (Homo sapiens, UniProt Q02779); settings: 0.1 µM; binder
# [26] = molecular target: SRMS (Homo sapiens, UniProt Q9H3Y6); settings: 0.1 µM; binder
# [27] = molecular target: CDC2L2 (Homo sapiens, UniProt Q9UQ88); settings: 0.1 µM; binder
# [28] = molecular target: HUNK (Homo sapiens, UniProt P57058); settings: 0.1 µM; binder
# [29] = molecular target: PIK3CA(C420R) (Homo sapiens, UniProt P42336, C420R); settings: 0.1 µM; binder
# Sequence of PIK3CA(C420R) (P42336 whole entry C420R): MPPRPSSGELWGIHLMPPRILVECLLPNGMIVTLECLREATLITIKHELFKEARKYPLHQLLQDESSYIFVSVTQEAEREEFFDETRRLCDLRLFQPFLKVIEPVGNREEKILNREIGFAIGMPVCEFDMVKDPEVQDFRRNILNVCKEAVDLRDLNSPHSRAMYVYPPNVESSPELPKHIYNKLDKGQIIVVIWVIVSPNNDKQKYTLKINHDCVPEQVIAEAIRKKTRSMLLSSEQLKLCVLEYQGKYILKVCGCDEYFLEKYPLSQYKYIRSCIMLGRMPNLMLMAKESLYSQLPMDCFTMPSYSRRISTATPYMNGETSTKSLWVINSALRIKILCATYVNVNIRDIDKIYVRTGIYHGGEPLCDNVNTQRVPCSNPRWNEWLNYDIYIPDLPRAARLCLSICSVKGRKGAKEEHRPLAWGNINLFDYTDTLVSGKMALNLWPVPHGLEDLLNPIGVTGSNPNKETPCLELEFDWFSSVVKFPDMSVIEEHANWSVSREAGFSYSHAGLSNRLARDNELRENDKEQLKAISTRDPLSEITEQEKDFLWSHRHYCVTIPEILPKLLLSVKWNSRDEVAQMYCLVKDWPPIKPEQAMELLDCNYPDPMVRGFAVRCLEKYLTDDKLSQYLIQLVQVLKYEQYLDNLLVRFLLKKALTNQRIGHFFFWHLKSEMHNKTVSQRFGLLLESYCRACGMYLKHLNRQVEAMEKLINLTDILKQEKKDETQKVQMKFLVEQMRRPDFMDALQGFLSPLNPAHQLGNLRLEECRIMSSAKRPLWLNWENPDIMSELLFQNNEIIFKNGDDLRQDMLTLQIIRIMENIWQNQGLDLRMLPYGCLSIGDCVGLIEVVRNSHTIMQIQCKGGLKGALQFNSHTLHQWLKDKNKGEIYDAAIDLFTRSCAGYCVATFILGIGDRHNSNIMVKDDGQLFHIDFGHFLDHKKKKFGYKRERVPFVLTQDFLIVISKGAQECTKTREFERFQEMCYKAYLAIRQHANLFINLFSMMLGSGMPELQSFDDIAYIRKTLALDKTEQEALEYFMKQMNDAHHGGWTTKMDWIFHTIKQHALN
# [30] = molecular target: MEK5 (Homo sapiens, UniProt Q13163); settings: 0.1 µM; binder
# [31] = molecular target: AMPK-alpha1 (Homo sapiens, UniProt Q13131); settings: 0.1 µM; binder
# Sequence of PIK3CA(E545K) (P42336 whole entry E545K): as the sequence (P42336 whole entry C420R) above, with R420C, E545K counted along it
smiles,measurement,setting,value
"CNc1ncc2cc(-c3ccc(-c4cccc(C)n4)cc3Cl)c(=O)n(C[C@H]3OC[C@H](N)CO3)c2n1 [compound 6, G-5555]",Percent Control,[1],100%
same,Percent Control,[2],100%
same,Percent Control,[3],85%
same,Percent Control,[4],100%
same,Percent Control,[5],100%
same,Percent Control,[6],68%
same,Percent Control,[7],90%
same,Percent Control,[8],100%
same,Percent Control,[9],95%
same,Percent Control,[10],77%
same,Percent Control,[11],100%
same,Percent Control,[12],100%
same,Percent Control,[13]; nonphosphorylated,79%
same,Percent Control,[13]; phosphorylated,97%
same,Percent Control,[14],100%
same,Percent Control,[15],100%
same,Percent Control,[16],88%
same,Percent Control,[17],100%
same,Percent Control,[18],99%
same,Percent Control,[19],100%
same,Percent Control,[20],100%
same,Percent Control,[21],100%
same,Percent Control,[21]; autoinhibited,82%
same,Percent Control,[22],82%
same,Percent Control,[23],100%
same,Percent Control,[24],77%
same,Percent Control,[25],100%
same,Percent Control,[26],99%
same,Percent Control,[27],100%
same,Percent Control,[28],100%
same,Percent Control,[29],80%
same,Percent Control,[30],13%
same,Percent Control,[31],95%
